Measurements from article PMC10557616 (bioRxiv, 2023).

Key:
Assay type in all cases: biochemical
Conditions in all cases: phosphocreatine as phosphate donor
[1] = target: T1, creatine kinase U-type (CKMT1) (Homo sapiens, UniProt P12532); assay: uHPLC-MS detection of ATP
CKM [2] = target: T2, CKM (Homo sapiens, UniProt P06732); assay: uHPLC-MS detection of ATP
CKM [3] = target: T2, CKM; assay: uHPLC-MS detection of TFV-DP
[4] = target: T1, creatine kinase U-type (CKMT1); assay: uHPLC-MS detection of TFV-DP

T2 sequence (P06732 whole entry): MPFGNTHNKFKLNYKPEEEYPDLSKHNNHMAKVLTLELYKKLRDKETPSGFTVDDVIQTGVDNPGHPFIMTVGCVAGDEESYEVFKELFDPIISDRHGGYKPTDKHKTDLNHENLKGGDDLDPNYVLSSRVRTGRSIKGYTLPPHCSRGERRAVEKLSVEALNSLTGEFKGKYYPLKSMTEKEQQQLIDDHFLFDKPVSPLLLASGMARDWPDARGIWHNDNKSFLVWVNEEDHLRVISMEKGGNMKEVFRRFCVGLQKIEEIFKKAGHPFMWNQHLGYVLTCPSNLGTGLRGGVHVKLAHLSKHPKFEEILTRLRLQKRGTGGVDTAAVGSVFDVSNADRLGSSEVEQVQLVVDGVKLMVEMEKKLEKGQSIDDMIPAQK

SMILES | uHPLC-MS detection of ATP [1] | uHPLC-MS detection of ATP (CKM [2]) | uHPLC-MS detection of TFV-DP (CKM [3]) | uHPLC-MS detection of TFV-DP [4]
Nc1ncnc2c1ncn2[C@@H]1O[C@H](COP(=O)(O)OP(=O)(O)O)[C@@H](O)[C@H]1O [ADP] | the proteins were incubated with phosphocreatine and ADP and ATP was detected by uHPLC-MS | the proteins were incubated with phosphocreatine and ADP and ATP was detected by uHPLC-MS |  | 
C[C@H](Cn1cnc2c(N)ncnc21)OCP(=O)(O)OP(=O)(O)O [TFV-MP] |  |  | no significant differences in TFV-DP levels between the CKM, CKB, or CKMT1 catalyzed reactions | no significant differences in TFV-DP levels between the CKM, CKB, or CKMT1 catalyzed reactions
